Test results published in patent publication US12421249B2, “Inhibitors of APOL1 and methods of using same” (Vertex Pharmaceuticals Incorporated, priority 2020, dated 2025).
pIC50: −log10 of the molar value. Like-named read-outs stand apart in the source and are kept apart here.

Legend:
APOL1 G1 = biological target: T1, APOL1 G1 (Homo sapiens, UniProt O14791, I384M/S342G); assay: Trypanosoma brucei brucei Lysis Assay Using APOL1 Recombinant Protein (AlamarBlue viability readout); format: cell-based; conditions: for Emax: read-out: Trypanosome Assay Max Activity (%)
T1 sequence (O14791 28-398 S342G/I384M): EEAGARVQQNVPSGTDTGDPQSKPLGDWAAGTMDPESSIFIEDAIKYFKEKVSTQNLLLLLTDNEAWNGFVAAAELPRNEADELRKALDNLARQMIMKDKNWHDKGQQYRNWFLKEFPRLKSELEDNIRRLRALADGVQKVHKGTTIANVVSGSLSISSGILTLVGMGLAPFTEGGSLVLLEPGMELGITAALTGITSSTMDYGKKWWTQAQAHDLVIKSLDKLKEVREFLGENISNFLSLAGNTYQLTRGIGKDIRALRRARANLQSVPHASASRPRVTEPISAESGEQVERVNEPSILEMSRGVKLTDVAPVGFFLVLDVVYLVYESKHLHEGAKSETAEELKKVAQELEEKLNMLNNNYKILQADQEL
Method in brief: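 Percent viability comes from AlamarBlue (resazurin→resorufin) fluorescence interpolated on a standard curve of known parasite numbers, with no-APOL1 wells as 100%. Parasites (Lister 427 bloodstream form, 120,000/well, serum-free assay medium) meet 0.05 μg/mL APOL1 (~EC90). Compounds span a 10-point series, 0.1% DMSO final.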

APOL1 = biological target: T2, APOL1 (Homo sapiens, UniProt O14791); assay: Multi-Tox Assay (MultiTox-Fluor Multiplex Cytotoxicity Assay in tet-inducible APOL1 T-REx-HEK293 cells; Table 46 does not say which APOL1 variant G0/G1/G2); format: cell-based; conditions: APOL1 variant not given; for pIC50: IP50 = IC50 for cell proliferation
T2 sequence (O14791 1-398 S342G/I384M): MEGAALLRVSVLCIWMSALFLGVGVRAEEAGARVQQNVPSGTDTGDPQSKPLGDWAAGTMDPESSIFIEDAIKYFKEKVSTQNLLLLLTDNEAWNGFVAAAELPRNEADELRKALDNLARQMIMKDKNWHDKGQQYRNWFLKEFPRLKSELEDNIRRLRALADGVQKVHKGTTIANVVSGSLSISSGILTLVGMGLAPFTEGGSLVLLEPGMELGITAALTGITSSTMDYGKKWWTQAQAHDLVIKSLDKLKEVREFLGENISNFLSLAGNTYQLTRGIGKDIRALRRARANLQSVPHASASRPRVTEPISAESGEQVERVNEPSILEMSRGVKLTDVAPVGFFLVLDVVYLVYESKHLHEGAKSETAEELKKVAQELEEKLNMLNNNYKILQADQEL

[1] = Trypanosome Assay, IP50 = IC50 for cell proliferation, read-out: Trypanosome Assay IP50

Row | Structure (SMILES) | Trypanosome Assay Max Activity (%) (APOL1 G1; Trypanosome Assay) | pIC50 (APOL1 G1; [1]) | IC90 (APOL1) [nM] | Multi-Tox Assay Max Activity (%) (APOL1) | pIC50 (APOL1) | Emax (APOL1 G1; Trypanosome Assay) [%] | pIC50 (APOL1 G1) | Emax (APOL1 G1) [%]
1 | CC1CC2(CC(C3CC3(F)F)N1)OCCc1cc(Cl)sc12 (single isomer, unassigned) [Compound 213] | 98.7 | 6.30 to 7.30 | 50 to 500 | 99.5 | 6.30 to 7.30 | – | – | –
2 | Cc1cc2c(s1)C1(C[C@@H](c3cn(C)nn3)N[C@@H](C)C1)OCC2 (stereo in doubt) [Compound 3] | – | > 7.30 | – | – | > 7.30 | 107 | – | –
3 | CCc1cc2c(s1)CCOC21C[C@@H](c2cn(C)nn2)N[C@@H](C)C1 (stereo in doubt) [Compound 4] | – | > 7.30 | – | – | > 7.30 | 118 | – | –
4 | CCc1cc2c(s1)CCO[C@@]21C[C@@H](c2cnn(CCS(C)(=O)=O)c2)N[C@@H](C)C1 (stereo in doubt) [Compound 5] | – | 6.30 to 7.30 | – | 100.0 | 6.30 to 7.30 | 111 | – | –
5 | CCc1cc2c(s1)C1(C[C@@H](c3cn(C)nn3)N[C@@H](C)C1)OCC2 (stereo in doubt) [Compound 6] | – | > 7.30 | – | – | > 7.30 | 102 | – | –
6 | CCc1cc2c(s1)C(C)COC21C[C@@H](c2cn(C)nn2)N[C@@H](C)C1 (stereo in doubt) [Compound 10] | – | 6.30 to 7.30 | – | 99.7 | > 7.30 | 101 | – | –
7 | CCc1cc2c(s1)C(C)COC21C[C@@H](c2cn(C)nn2)N[C@@H](C)C1 (stereo in doubt) [Compound 11] | 101.5 | > 7.30 | < 50 | 99.3 | > 7.30 | – | – | –
8 | CC1COC2(C[C@@H](c3cn(C)nn3)N[C@@H](C)C2)c2cc(Cl)sc21 (stereo in doubt) [Compound 12] | – | > 7.30 | – | 99.3 | > 7.30 | 102 | – | –
9 | CC1COC2(C[C@@H](c3cn(C)nn3)N[C@@H](C)C2)c2cc(Cl)sc21 (stereo in doubt) [Compound 13] | 100.0 | > 7.30 | < 50 | 99.0 | > 7.30 | – | – | –
10 | CC1COC2(C[C@@H](c3cn(C)nn3)N[C@@H](C)C2)c2cc(C(F)(F)F)sc21 (stereo in doubt) [Compound 14] | – | > 7.30 | – | – | > 7.30 | 102 | – | –
11 | C[C@H]1CC2(C[C@@H](c3cn(C)nn3)N1)OCC(C)(C)c1sc(Cl)cc12 (stereo in doubt) [Compound 15] | – | > 7.30 | – | 99.0 | > 7.30 | 101 | – | –
12 | C[C@H]1CC2(C[C@@H](c3cn(C)nn3)N1)OCC(C)(C)c1sc(C(F)(F)F)cc12 (stereo in doubt) [Compound 16] | – | 6.30 to 7.30 | – | 100.0 | > 7.30 | 99.5 | – | –
13 | C[C@H]1C[C@@]2(C[C@@H](c3ccc(O)c(F)c3)N1)OCCc1cc(Cl)sc12 (stereo in doubt) [Compound 51] | – | > 7.30 | – | 99.7 | > 7.30 | 102 | – | –
14 | C[C@H]1C[C@@]2(C[C@@H](c3cnc(-c4cnn(C)c4)nc3)N1)OCCc1cc(Cl)sc12 (stereo in doubt) [Compound 61] | – | > 7.30 | – | – | > 7.30 | 105 | – | –
15 | C[C@H]1C[C@@]2(C[C@@H](c3ccc(O)nn3)N1)OCCc1cc(Cl)sc12 (stereo in doubt) [Compound 86] | – | > 7.30 | – | – | > 7.30 | 112 | – | –
16 | CCc1cc([C@@H]2C[C@]3(C[C@H](C)N2)OCCc2cc(Cl)sc23)on1 (stereo in doubt) [Compound 91] | – | > 7.30 | – | – | > 7.30 | 110 | – | –
17 | C[C@H]1C[C@@]2(C[C@@H](c3cnn(C4CCS(=O)(=O)C4)c3)N1)OCCc1cc(Cl)sc12 (stereo in doubt) [Compound 97] | – | > 7.30 | – | – | > 7.30 | 104 | – | –

Row | Structure (SMILES) | Trypanosome Assay Max Activity (%) (APOL1 G1; Trypanosome Assay) | pIC50 (APOL1 G1; [1]) | IC90 (APOL1) [nM] | Multi-Tox Assay Max Activity (%) (APOL1) | pIC50 (APOL1) | Emax (APOL1 G1; Trypanosome Assay) [%] | pIC50 (APOL1 G1) | Emax (APOL1 G1) [%]
18 | C[C@H]1C[C@@]2(C[C@@H](c3cc(C4CCOCC4)[nH]n3)N1)OCCc1cc(Cl)sc12 (stereo in doubt) [Compound 114] | – | 6.30 to 7.30 | – | 99.7 | > 7.30 | 95 | – | –
19 | C[C@H]1C[C@@]2(C[C@@H](c3cc(C(F)(F)F)[nH]n3)N1)OCCc1cc(Cl)sc12 (stereo in doubt) [Compound 119] | – | 6.30 to 7.30 | – | 99.7 | > 7.30 | 97.5 | – | –
20 | C[C@H]1C[C@@]2(C[C@@H](c3cccn4ccnc34)N1)OCCc1cc(Cl)sc12 (stereo in doubt) [Compound 143] | – | 6.30 to 7.30 | – | 98.0 | 6.30 to 7.30 | 101 | – | –
21 | C[C@H]1CC2(CC(c3cn(C)cn3)N1)OCC(O)c1cc(Cl)sc12 (stereo in doubt) [Compound 178] | – | > 7.30 | – | – | > 7.30 | 101 | – | –
22 | C[C@H]1CC2(CC(c3cn(C)cn3)N1)OCC(O)c1cc(Cl)sc12 (stereo in doubt) [Compound 179] | 119.5 | > 7.30 | < 50 | 99.0 | > 7.30 | – | – | –
23 | C[C@H]1C[C@@]2(C[C@@H](c3cn(C)nn3)N1)OCCc1cc(Cl)sc12 [Compound 1, (2′S,6′S,7S)-2-chloro-2′-methyl-6′-(1-methyltriazol-4-yl)spiro[4,5-dihydrothieno[2,3-c]pyran-7,4′-piperidine]] | – | > 7.30 | – | – | > 7.30 | 124 | – | –
24 | C[C@H]1C[C@@]2(C[C@@H](c3cn(C)nn3)N1)OCCc1cc(C(F)(F)F)sc12 [Compound 2, (2′S,6′S,7S)-2′-methyl-6′-(1-methyltriazol-4-yl)-2-(trifluoromethyl)spiro[4,5-dihydrothieno[2,3-c]pyran-7,4′-piperidine]] | – | > 7.30 | – | – | > 7.30 | 117 | – | –
25 | C[C@H]1C[C@@]2(C[C@@H](c3cn(C)nn3)N1)OCCc1sc(C(F)(F)F)cc12 [Compound 8, (2′S,4S,6′S)-2′-methyl-6′-(1-methyltriazol-4-yl)-2-(trifluoromethyl)spiro[6,7-dihydrothieno[3,2-c]pyran-4,4′-piperidine]] | – | 6.30 to 7.30 | – | 100.0 | > 7.30 | 106 | – | –
26 | CC1CC2(CC(c3cnn(CCS(C)(=O)=O)c3)N1)OCCc1sc(C(F)(F)F)cc12 (centres unmarked) [Compound 9] | – | 6.30 to 7.30 | – | 100.0 | > 7.30 | 108 | – | –
27 | C[C@H]1C[C@@]2(C[C@@H](c3cn(C)nn3)N1)OCCc1c2sc(C(F)(F)F)c1CO [Compound 17, [(2′S,6′S, 7S)-2′-methyl-6′-(1-methyltriazol-4-yl)-2-(trifluoromethyl)spiro[4,5-dihydrothieno[2,3-c]pyran-7,4′-piperidine]-3-yl]methanol] | – | 6.30 to 7.30 | – | – | > 7.30 | 102 | – | –
28 | C[C@H]1C[C@@]2(C[C@@H](c3cnn(CC(=O)N(C)C)c3)N1)OCCc1cc(Cl)sc12 [Compound 18, 2-[4-[(2S,6S)-2-chloro-6′-methyl-spiro[4,5-dihydrothieno[2,3-c]pyran-7,4′-piperidine]-2′-yl]pyrazol-1-yl]-N,N-dimethyl-acetamide] | – | 6.30 to 7.30 | – | – | > 7.30 | 103 | – | –
29 | C[C@H]1C[C@@]2(C[C@@H](c3cnn(C)c3)N1)OCCc1cc(Cl)sc12 [Compound 19, (2S)-2-chloro-2′-methyl-6′-(1-methylpyrazol-4-yl)spiro[4,5-dihydrothieno[2,3-c]pyran-7,4′-piperidine]] | – | > 7.30 | – | – | > 7.30 | 107 | – | –
30 | CC1CC2(CC(c3ccc4c(c3)oc(=O)n4C)N1)OCCc1cc(Cl)sc12 (centres unmarked) [Compound 23] | – | > 7.30 | < 50 | 99.7 | > 7.30 | 116 | – | –
31 | CC1CC2(CC(c3cccc(C#N)c3)N1)OCCc1cc(Cl)sc12 (centres unmarked) [Compound 24] | – | > 7.30 | – | 100.0 | > 7.30 | 107 | – | –
32 | CNC(=O)c1cccc(C2CC3(CC(C)N2)OCCc2cc(Cl)sc23)c1 (centres unmarked) [Compound 27] | – | > 7.30 | – | – | > 7.30 | 112 | – | –
33 | CC1CC2(CC(c3ccncc3)N1)OCCc1cc(Cl)sc12 (centres unmarked) [Compound 30] | – | – | – | 99.0 | > 7.30 | – | > 7.30 | 124
